Consider two molecules from patent publication US9962453B2, “Immunogenic compound” (ALTIMMUNE UK LIMITED, priority 2013, dated 2018).

Structures can show the parent of a compound that is named as a salt. No end group written: not given here. PEG‑FIM = not defined here

In assay [1] the test system is T cell immune response to FP-02.2 vaccine peptides. Format: in vivo, BALB/c mice. As to conditions: conclusions of Example 2.
The next assay deals with T1, human TLR7 (Homo sapiens, UniProt Q9NYK1).
T1 construct: host or cells: HEK-Blue-hTLR7 (HEK293)
T1 sequence (Q9NYK1 27-1049): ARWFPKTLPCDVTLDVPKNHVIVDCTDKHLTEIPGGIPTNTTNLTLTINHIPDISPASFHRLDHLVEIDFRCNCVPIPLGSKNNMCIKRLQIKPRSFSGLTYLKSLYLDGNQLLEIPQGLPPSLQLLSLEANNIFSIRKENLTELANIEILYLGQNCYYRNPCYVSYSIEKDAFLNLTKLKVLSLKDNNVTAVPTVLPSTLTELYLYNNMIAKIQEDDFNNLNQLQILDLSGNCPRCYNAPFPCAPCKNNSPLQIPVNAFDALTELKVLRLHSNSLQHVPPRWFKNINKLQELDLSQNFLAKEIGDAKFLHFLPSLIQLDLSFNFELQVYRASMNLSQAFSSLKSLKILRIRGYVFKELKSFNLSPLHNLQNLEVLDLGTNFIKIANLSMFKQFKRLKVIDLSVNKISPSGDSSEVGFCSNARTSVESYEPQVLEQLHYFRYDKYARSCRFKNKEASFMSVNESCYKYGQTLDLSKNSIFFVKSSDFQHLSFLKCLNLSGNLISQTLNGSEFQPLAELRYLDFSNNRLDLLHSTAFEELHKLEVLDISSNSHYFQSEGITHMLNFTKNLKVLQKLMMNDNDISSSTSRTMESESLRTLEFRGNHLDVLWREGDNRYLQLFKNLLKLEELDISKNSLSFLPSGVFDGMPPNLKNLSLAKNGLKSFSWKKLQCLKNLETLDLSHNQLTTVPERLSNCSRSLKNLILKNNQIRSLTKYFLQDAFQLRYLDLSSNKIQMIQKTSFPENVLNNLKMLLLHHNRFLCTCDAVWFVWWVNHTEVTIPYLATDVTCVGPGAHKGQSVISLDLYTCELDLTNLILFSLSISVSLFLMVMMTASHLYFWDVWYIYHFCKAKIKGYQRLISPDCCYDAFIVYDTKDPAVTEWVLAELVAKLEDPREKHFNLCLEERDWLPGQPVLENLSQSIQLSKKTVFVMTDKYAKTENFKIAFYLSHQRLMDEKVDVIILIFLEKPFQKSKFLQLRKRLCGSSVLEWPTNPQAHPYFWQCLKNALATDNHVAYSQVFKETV
The experiment in a line: Human TLR7 HEK-Blue reporter gene assay (NF-kappaB activation, SEAP). Type of assay: cell-based. As to conditions: in comparison with R848. The procedure: (§1) The activity of different TLR-7 or TLR-8 agonist were tested using human TLR-specific HEK-Blue™ reporter gene assays (Invivogen, France). HEK-Blue™-hTLR7 cells and HEK-Blue™-hTLR8 cells were obtained by co-transfection of the human TLR7 gene or human TLR8 genes and an inducible SEAP (secreted embryonic alkaline phosphatase) reporter gene into HEK293 cells. The SEAP gene is placed under the control of the IFN-β minimal promoter fused to five NF-kappaB and AP-1-binding sites. Stimulation with a TLR ligand activates NF-kappaB and AP-1 which induce the production of SEAP. Cells were maintained in HEK-Blue™ selection medium containing Blasticidin, Zeocin and Normocin. HEK-Blue™ cells were incubated at a density of 10^5 cells/mL in a volume of 200 ul in 96 well plates. In the presence of the HEK-Blue™ detection media, the secretion of SEAP (proportional to the to the NF-kappaB induction) was quantified at […].
For orientation: In a reporter assay the amount or activity of a reporter protein is the signal.

For a further assay, the target named is T2, human TLR8 (Homo sapiens, UniProt Q9NR97).
T2 construct: host or cells: HEK-Blue-hTLR8 (HEK293)
T2 sequence (Q9NR97 27-1041): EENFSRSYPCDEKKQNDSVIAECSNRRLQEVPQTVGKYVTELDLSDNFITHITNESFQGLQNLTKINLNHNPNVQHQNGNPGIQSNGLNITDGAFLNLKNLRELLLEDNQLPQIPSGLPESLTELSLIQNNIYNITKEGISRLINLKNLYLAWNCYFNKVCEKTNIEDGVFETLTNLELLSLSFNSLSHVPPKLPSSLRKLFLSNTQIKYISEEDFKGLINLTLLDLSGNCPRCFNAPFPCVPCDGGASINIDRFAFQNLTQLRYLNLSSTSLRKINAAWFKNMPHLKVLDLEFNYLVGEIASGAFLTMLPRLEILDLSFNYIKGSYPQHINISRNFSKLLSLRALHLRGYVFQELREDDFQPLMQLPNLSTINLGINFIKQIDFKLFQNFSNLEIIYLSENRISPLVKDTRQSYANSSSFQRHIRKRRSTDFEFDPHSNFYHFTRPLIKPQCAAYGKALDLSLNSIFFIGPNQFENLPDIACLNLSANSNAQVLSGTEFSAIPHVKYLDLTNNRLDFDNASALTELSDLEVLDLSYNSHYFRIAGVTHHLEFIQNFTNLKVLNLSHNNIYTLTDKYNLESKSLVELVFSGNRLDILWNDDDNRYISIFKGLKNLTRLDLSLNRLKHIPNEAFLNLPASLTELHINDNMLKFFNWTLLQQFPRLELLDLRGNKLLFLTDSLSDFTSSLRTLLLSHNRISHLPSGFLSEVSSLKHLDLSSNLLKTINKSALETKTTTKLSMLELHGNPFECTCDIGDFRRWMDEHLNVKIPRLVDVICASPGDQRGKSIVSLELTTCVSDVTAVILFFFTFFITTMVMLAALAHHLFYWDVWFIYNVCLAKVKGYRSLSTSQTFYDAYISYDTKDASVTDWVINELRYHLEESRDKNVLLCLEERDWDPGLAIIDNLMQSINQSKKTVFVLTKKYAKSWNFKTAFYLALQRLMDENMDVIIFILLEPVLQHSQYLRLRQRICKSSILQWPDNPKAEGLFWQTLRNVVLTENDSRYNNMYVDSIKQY
Briefly: Human TLR8 HEK-Blue reporter gene assay (NF-kappaB activation, SEAP). Format: cell-based. As to conditions: in comparison with R848. The procedure: as §1

As for `CCOCc1nc2c(N)nc3ccccc3c2n1CC(C)(C)O` [Peptide R848, [4-Amino-2-(ethoxymethyl)-1H-imidazo[4,5-c]quinolin-1-yl]-2-methyl-2-propanol, HCl, reference compound], the “adjuvanticity, conjugates versus free R848” value in assay [1] is “little to no-adjuvanticity”. Further, on human TLR7, the “NF-kappaB activation in HEK-293 cells expressing TLR-7” value is recorded as “highly active”. Also, on human TLR8, the “NF-kappaB activation in HEK-293 cells expressing TLR-8” value is “highly active”.

On to “RLK(PEG-FIM)-NH2 (Arg-Leu-Lys(PEG‑FIM)-NH2; reading uncertain; also: printed as RLK(PEG-FIM)-NH2) [RLK-PEG-FIM-01]”, for which the “NF-kappaB activation in HEK-293 cells expressing TLR-7” value with human TLR7 is “also active in the TLR-7 and TLR-8 cell line but to a much lesser extent compared to R848”. Moreover, the “NF-kappaB activation in HEK-293 cells expressing TLR-8” value with human TLR8 is “also active in the TLR-7 and TLR-8 cell line but to a much lesser extent compared to R848”.
